The nature of data set [1]: Drug uptake in human A549 cells assessed as compound localization in mitochondria at 0.1 uM measured after 24 hrs by Mitotracker Green FM based laser confocal microscopy. The class given is ADME. As to conditions: a549, 24 h.
The nature of data set [2]: Drug uptake in human A549 cells after 24 hrs by fluorescence spectrophotometer analysis relative to tala-porfin. The data set is classed as ADME, cell-based. The settings on record: a549, 24 h.
The subject of data set [3] is A549. In words: Induction of reactive oxygen species generation in human A549 cells assessed as mean count value at 0.01 uM incubated for 24 hrs by DCFH-DA staining based fluorescence microscopy assay. The data set is classed as functional.
In another data set the target is Histone deacetylase 2 (Homo sapiens, UniProt Q92769). In words: Inhibition of human recombinant HDAC2 using Ac-Leu-Gly-Lys(Ac)-AMC as substrate by measuring fluorescence intensity incubated for 30 mins by microplate reader assay.
Chain of Histone deacetylase 2 (Q92769 whole entry): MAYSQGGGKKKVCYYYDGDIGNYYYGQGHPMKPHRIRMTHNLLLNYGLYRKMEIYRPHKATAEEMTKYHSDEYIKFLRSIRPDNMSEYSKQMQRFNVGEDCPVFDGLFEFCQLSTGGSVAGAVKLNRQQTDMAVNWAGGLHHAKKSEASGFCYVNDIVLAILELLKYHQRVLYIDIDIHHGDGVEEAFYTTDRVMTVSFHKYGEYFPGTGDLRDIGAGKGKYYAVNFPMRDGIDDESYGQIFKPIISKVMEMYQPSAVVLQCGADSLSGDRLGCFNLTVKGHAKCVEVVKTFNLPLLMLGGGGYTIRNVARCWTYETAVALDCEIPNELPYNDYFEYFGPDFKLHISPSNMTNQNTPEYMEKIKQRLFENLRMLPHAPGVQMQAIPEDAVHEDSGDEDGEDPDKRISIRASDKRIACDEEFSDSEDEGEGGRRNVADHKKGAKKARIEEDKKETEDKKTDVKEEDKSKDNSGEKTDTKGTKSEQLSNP
A further data set deals with T1, Histone deacetylase 8 (Homo sapiens, UniProt Q9BY41).
T1 sequence (Q9BY41 whole entry): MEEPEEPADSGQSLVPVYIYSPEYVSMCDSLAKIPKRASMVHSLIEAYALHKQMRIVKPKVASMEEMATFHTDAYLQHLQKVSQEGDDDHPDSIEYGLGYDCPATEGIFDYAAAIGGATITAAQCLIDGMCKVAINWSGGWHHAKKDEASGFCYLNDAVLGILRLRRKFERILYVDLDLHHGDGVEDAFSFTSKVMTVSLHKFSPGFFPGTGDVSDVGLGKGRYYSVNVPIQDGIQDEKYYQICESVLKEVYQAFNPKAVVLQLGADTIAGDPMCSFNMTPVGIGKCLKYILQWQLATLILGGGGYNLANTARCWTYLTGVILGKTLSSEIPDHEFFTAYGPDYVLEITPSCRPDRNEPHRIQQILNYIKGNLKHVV
The data set is described as follows: Inhibition of human recombinant HDAC8 using Ac-Leu-Gly-Lys(Ac)-AMC as substrate by measuring fluorescence intensity incubated for 30 mins by microplate reader assay.

The target of data set [4] is T2, Histone deacetylase 1 (Homo sapiens, UniProt Q13547). The data set is described as follows: Inhibition of human recombinant HDAC1 in human A 549 cells assessed as effect on acetyl-H3 expression upto 2 uM measured after 24 hrs by western blot analysis. The class given is cell-based. The settings on record: A549, dose microM <=2, time 24.0 hrs.
T2 sequence (Q13547 whole entry): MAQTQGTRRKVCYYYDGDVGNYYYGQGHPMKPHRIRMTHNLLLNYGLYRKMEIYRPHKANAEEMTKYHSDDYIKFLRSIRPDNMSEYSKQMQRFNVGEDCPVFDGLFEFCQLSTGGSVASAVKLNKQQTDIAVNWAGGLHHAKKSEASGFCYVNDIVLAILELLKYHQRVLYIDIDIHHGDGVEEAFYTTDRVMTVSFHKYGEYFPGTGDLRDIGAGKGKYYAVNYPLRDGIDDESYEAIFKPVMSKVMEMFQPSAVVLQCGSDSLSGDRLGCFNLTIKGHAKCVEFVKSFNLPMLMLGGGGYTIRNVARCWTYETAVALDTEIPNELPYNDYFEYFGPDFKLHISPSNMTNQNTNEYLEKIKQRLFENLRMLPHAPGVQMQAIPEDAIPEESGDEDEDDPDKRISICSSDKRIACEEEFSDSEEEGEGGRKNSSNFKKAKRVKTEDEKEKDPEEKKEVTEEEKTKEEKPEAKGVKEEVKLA
A short description of data set [5]: Drug uptake in human A549 cells assessed as compound localization in ER at 0.1 uM measured after 24 hrs by ERtracker Green dye based laser confocal microscopy. The settings on record: a549, 24 h. The data set is classed as ADME, subcellular, Endoplasmic reticulum.
Data set [6] in a line: Drug uptake in human A549 cells assessed as compound localization in golgi at 0.1 uM measured after 24 hrs by Golgi tracker Green dye based laser confocal microscopy. The settings on record: a549, 24 h. The data set is classed as ADME, subcellular, Golgi body.
The test system of data set [7] is A549. The data set is described as follows: Induction of apoptosis in human A549 cells assessed as apoptotic cells at 0.5 uM in absence of light irradiation incubated for 48 hrs by annexin V-FITC staining based flow cytometry. The data set is classed as functional. A general note: A flow cytometer gives signals particle by particle.
Data set [8] has as its target T2, Histone deacetylase 1. In words: Inhibition of human recombinant HDAC1 using Ac-Leu-Gly-Lys(Ac)-AMC as substrate by measuring fluorescence intensity incubated for 30 mins by microplate reader assay.
Data set [9] can be described thus: Drug uptake in human A549 cells assessed as compound localization in lysosome at 0.1 uM measured after 24 hrs by Lysotracker Green DND-26 dye based laser confocal microscopy. The class given is ADME, subcellular. The settings on record: a549, 24 h.
For data set [10], the system named is A549. In words: Induction of autophagy in human A549 cells irradiated 10 j/cm2 at 0.1 uM after 24 hrs using fluorescent molecule DAPRed. The class given is functional.
In a further data set the target is Histone deacetylase 3 (Homo sapiens, UniProt O15379). The data set is described as follows: Inhibition of human recombinant HDAC3 using Ac-Leu-Gly-Lys(Ac)-AMC as substrate by measuring fluorescence intensity incubated for 30 mins by microplate reader assay.
Chain of Histone deacetylase 3 (O15379 whole entry): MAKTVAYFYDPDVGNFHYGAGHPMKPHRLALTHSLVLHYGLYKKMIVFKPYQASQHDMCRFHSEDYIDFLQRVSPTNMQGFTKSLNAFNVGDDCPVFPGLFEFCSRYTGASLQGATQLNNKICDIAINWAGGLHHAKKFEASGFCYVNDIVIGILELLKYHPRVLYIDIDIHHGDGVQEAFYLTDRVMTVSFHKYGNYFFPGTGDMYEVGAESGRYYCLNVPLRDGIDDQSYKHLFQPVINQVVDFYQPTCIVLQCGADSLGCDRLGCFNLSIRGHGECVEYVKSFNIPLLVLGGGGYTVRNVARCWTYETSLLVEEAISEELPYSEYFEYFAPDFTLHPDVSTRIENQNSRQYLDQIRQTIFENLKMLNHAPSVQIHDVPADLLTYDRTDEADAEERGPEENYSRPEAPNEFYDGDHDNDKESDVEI
In data set [11] the test system is A549. The data set is described as follows: Phototoxicity in human A549 cells assessed as reduction in cell viability irradiated 10 j/cm2 for 24 hrs followed by incubated for 24 hrs by CCK8 assay. The class given is functional, cell-based. As to conditions: A549, light or radiation study.
Data set [12] concerns A549. The data set is described as follows: Induction of reactive oxygen species generation in human A549 cells assessed as mean count value at 0.05 uM incubated for 24 hrs by DCFH-DA staining based fluorescence microscopy assay. The class given is functional.
For data set [13], the target named is T3, Polyamine deacetylase HDAC10 (Homo sapiens, UniProt Q969S8).
T3 sequence (Q969S8 whole entry): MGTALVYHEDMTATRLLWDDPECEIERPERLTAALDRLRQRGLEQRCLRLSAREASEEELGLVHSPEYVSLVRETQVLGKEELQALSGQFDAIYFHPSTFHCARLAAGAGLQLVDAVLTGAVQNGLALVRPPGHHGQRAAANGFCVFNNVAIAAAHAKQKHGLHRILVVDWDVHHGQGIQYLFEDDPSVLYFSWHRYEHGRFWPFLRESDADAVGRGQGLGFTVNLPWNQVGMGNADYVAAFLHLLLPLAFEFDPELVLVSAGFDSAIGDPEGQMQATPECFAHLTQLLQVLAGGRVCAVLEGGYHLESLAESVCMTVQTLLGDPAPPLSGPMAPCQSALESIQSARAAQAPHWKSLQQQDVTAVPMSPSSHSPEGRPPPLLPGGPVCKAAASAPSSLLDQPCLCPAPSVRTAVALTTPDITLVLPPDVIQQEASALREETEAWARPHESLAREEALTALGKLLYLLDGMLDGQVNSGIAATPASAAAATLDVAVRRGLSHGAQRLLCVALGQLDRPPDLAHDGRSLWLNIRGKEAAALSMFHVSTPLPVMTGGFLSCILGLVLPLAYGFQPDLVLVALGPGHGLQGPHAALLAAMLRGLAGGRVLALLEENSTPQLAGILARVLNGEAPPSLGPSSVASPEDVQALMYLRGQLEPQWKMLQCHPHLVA
The data set is described as follows: Inhibition of human recombinant HDAC10 using Ac-Leu-Gly-Lys(Ac)-AMC as substrate by measuring fluorescence intensity incubated for 30 mins by microplate reader assay.

Data set [14] has as its system A549. The data set is described as follows: Dark toxicity in human A549 cells assessed as reduction in cell viability incubated under dark for 48 hrs measured after 48 hrs by CCK8 assay. The settings on record: A549, 48 h. The class given is functional, cell-based.
In data set [15] the test system is HCT-116. The data set is described as follows: Phototoxicity in human HCT-116 cells assessed as reduction in cell viability irradiated 10 j/cm2 for 24 hrs followed by incubated for 24 hrs by CCK8 assay. The data set is classed as functional, cell-based. The settings on record: HCT-116, light or radiation study.
Data set [16] concerns A549. The data set is described as follows: Induction of apoptosis in human A549 cells assessed as apoptotic cells at 0.1 uM in presence of light irradiation incubated for 48 hrs by annexin V-FITC staining based flow cytometry. The class given is functional.
Data set [17] can be described thus: Drug uptake in human A549 cells assessed as compound localization in nucleus at 0.1 uM measured after 24 hrs by laser confocal microscopy. The data set is classed as ADME, subcellular. The settings on record: a549, 24 h.
The target of data set [18] is T2, Histone deacetylase 1. The data set is described as follows: Inhibition of human recombinant HDAC1 in human A 549 cells assessed as effect on acetyl-H4 expression measured after 24 hrs by western blot analysis. The class given is cell-based. As to conditions: A549, dose microM <=2, time 24.0 hrs. In general terms: Immunoblotting shows a protein as a band on a membrane.

For data set [19], the system named is A549. In words: Induction of apoptosis in human A549 cells assessed as necrotic cells at 0.5 uM in absence of light irradiation incubated for 48 hrs by annexin V-FITC staining based flow cytometry. The data set is classed as functional.
For data set [20], the system named is HCT-116. The data set is described as follows: Dark toxicity in human HCT-116 cells assessed as reduction in cell viability incubated under dark for 48 hrs measured after 48 hrs by CCK8 assay. The class given is functional, cell-based. The settings on record: HCT-116, 48 h. For orientation: Tetrazolium assays rely on reduction of a dye to a coloured formazan, in cell work by metabolically active cells.

The source made the active and inactive calls. The rule behind the calls is not given here. A value given as a limit tells only on which side of the number the result lay.

Consider `C=Cc1c(C)c2cc3nc(c(C(=O)OC)c4[nH]c(cc5nc(cc1[nH]2)C(C)=C5CC)c(C)c4C(=O)OC)[C@@H](CCC(=O)Nc1ccc(C(=O)Nc2ccccc2N)cc1)[C@@H]3C`, for which the Drug uptake result in data set [1] is “Active”; in data set [5], “Active”; in data set [6], “Active”; in [9] it was “Active”; in data set [17] it was “Not Active”. The “fold change (FC)” value in data set [2] came to 9. Besides, the Activity amounted to 770.81 in the data set on A549 [3]; 54.74% in the data set on A549 [7]; 1760.9 with A549 [12]; 90.77% with A549 [16]; 45.22% with A549 [19]. The 50% inhibitory concentration (IC50) – broadly, the concentration at which inhibition is half-maximal – on Histone deacetylase 2 was 2.65 µM; on Histone deacetylase 8, more than 100 µM; at Histone deacetylase 1 [8] it was 27 µM; on Histone deacetylase 3, 72.1 µM; with A549 [11] it was 0.06 µM; in data set [13], more than 100 µM. Further, the concentration for half-maximal inhibition (IC50) in the data set on A549 [14] was determined as 0.3 µM; with HCT-116 [15], 0.006 µM; in the data set on HCT-116 [20] it was 2.79 µM. Besides, the inhibition entry on Histone deacetylase 1 [4] is “inactive”. Further, the outcome in the data set on A549 [10] was Active. On Histone deacetylase 1 [18], the inhibition result is “Dose-Dependent Effect”.

These data come from ChEMBL document CHEMBL4814003, “Novel dual-mode antitumor chlorin-based derivatives as potent photosensitizers and histone deacetylase inhibitors for photodynamic therapy and chemotherapy” (Eur J Med Chem, 2021).
